From patent US20040152741A1, “Arylglycine derivatives and their use as glycine transport inhibitors” (NPS Allelix Corporation, priority 2002, published 2004) come the findings set out here.

Molecules are shown by their SMILES.

The assay deals with T1, GlyT-1 C (Homo sapiens, UniProt P48067).
T1 construct: expressed in transfected cells; QT-6 quail fibroblast cells are called preferred
T1 sequence (P48067 1-706): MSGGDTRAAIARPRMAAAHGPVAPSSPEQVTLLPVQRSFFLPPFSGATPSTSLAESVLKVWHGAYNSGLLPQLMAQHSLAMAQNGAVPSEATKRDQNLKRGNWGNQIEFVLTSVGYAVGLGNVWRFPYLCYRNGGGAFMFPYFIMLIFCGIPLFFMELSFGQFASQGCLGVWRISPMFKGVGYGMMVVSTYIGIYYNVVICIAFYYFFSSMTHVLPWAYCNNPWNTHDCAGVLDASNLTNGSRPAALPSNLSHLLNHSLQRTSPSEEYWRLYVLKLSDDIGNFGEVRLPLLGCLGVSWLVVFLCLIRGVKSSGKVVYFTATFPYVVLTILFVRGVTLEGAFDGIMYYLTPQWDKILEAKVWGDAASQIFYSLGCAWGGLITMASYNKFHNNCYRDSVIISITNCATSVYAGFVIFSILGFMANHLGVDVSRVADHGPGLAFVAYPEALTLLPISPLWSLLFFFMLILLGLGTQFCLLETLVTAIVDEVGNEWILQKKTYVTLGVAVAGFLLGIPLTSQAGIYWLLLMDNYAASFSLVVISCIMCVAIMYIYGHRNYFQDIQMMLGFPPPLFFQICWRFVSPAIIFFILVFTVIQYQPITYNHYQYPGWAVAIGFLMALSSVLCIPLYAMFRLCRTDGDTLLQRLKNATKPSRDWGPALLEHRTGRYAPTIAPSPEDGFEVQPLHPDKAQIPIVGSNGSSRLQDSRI
The experiment in a line: Assay of transport via GlyT-1: [3H]glycine uptake by stably transfected cells. Format: cell-based. The note with it: cells stably transfected with GlyT-1 C; 50 nM [3H]glycine, 30 minutes at 37° C.; read-out: GlyT1 uptake IC50. An excerpt: For use in assaying for activity in inhibiting glycine transport, eukaryokic cells, preferably QT-6 cells derived from quail fibroblasts, have been transfected to express one of the three known variants of human GlyT-1, namely GlyT-1a, GlyT-1b or GlyT-1c, or human GlyT-2. The sequences of these GlyT-1 transporters are described in Kim et al., Molec. Pharm. 45: 608-617, 1994, excepting that the sequence encoding the extreme N-terminal of GlyT-1a was merely inferred from the corresponding rat-derived sequence. This N-terminal protein-encoding sequence has now been confirmed to correspond to that inferred by Kim et al. The sequence of the human GlyT-2 is described by Albert et al., U.S. Pat. No. 919,653 issued July 1999, which is incorporated herein by reference in its entirety. Suitable expression vectors include pRc/CMV (Invitrogen), Zap Express Vector (Stratagene Cloning Systems, LaJolla, Calif.; hereinafter “Stratagene”), pBk/CMV or pBk-RSV vectors (Stratagene), Bluescript II SK +/− Phagemid Vectors (Stratagene), LacSwitch (Stratagene), pMAM and pMAM neo (Clontech), among others. A suitable expression vector is capable of fostering expression of the included GlyT DNA in a suitable host cell, preferably a non-mammalian host cell, which can be eukaryotic, fungal, or prokaryotic. Such preferred host cells include amphibian, avian, fungal, insect, and reptilian cells.
This example illustrates a method for the measurement of glycine uptake by transfected cultured cells.
Cells stably transfected with GlyT-1 C (see Kim, et al., Molecular Pharmacology, 45, 1994:608-617) were washed twice with HEPES buffered saline (HBS). The cells were then incubated for 10 minutes at 37° C. with either (a) no potential competitor, (b) 10 mM non-radioactive glycine or (c) a concentration of a candidate drug. A range of concentrations of the candidate drug was used to generate data for calculating the concentration resulting in 50% of the effect (e.g., the IC50s, which are the concentrations of drug inhibiting glycine uptake by 50%). A solution was then added containing [^3H]glycine at a final concentration of 50 nM (17.5 Ci/mmol). The cells were then incubated with gentle shaking for another 30 minutes at 37° C., after which the reaction mixture was aspirated and washed three times with ice-cold HBS. The cells were lysed with scintillant and allowed to equilibrate. The radioactivity in the cells was determined using a scintillation counter. Data was compared between the same cells contacted or not contacted by a candidate agent, depending on the assay being conducted.
In the case of `COc1ccc([N+](=O)[O-])cc1NC(=O)N[C@@H](C(=O)Nc1ccc2c(c1)CCC2)c1ccccc1` [E29.1*], the IC50 was 71.9 nM.

Consider `COc1ccc([N+](=O)[O-])cc1NC(=S)N[C@@H](C(=O)Nc1ccc(C)c(C)c1)c1ccccc1` [E33.1*, (R)-2-[3-(2-methoxy-5-nitro-phenyl)-thioureido]-N-(3,4-dimethylphenyl)-2-phenyl acetamide], for which the concentration for half-maximal inhibition (IC50) was determined as 96 nM.

As to `COc1ccc([N+](=O)[O-])cc1NC(=O)NC(C(=O)Nc1cccc(C(F)(F)F)c1)c1ccccc1` (stereo not shown) [Experiment E31.2, 2-[3-(2-methoxy-5-nitro-phenyl)-ureido]-N-(3-trifluoromethylphenyl)-2-phenyl acetamide], the IC50 stood at 202 nM.

Turning to `COc1ccc([N+](=O)[O-])cc1NC(=S)NC(C(=O)Nc1ccc(C)c(C)c1)c1ccccc1` (stereo not shown) [Experiment E32.2, 2-[3-(2-methoxy-5-nitro-phenyl)-thioureido]-N-(3,4-dimethylphenyl)-2-phenyl acetamide], the IC50 amounted to 334 nM.

On to `COc1ccc([N+](=O)[O-])cc1NC(=O)N[C@@H](C(=O)Nc1ccc(C)c(C)c1)c1ccccc1` [Experiment E32.5, (R)-2-[3-(2-methoxy-5-nitro-phenyl)-ureido]-N-(3,4-dimethylphenyl)-2-phenyl acetamide], for which the IC50 was 25.9 nM.

As to `COc1ccc([N+](=O)[O-])cc1NC(=O)NC(C(=O)Nc1ccc2c(c1)CCC2)c1ccsc1` (stereo not shown) [Experiment E42.1], the concentration for half-maximal inhibition (IC50) amounted to 114 nM.

Take `COc1ccc([N+](=O)[O-])cc1NC(=S)NC(C(=O)Nc1ccc2c(c1)CCC2)c1ccsc1` (stereo not shown) [Experiment E42.2]: the IC50 is 131 nM.

In general, IC50 refers to the midpoint of a concentration-inhibition curve.
